Experimental findings from PubChem BioAssay (NCI) are described below.

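In this assay, cells in 96-well plates receive the compound at five concentrations for 48 hours. Endpoints are linearly interpolated between the surrounding concentrations. GI50: concentration for 50% inhibition of growth. At the TGI there is no net growth.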

Among the test systems are DMS 273 small cell lung; LXFL 529 NSCLC; SNB-78 CNS; RXF-631 renal; HOP-18 NSCLC; P388 leukemia; P388/ADR leukemia; SN12K1 renal.
Common to all, as to experiment: NCI tumour cell line growth inhibition, 48 h

Take `N.N.N.O=[N+]([O-])[O-].O=[N+]([O-])[O-].O=[N+]([O-])[O-].O=[N+]([O-])[O-].[Co+3]`: the GI50 in the experiment on DMS 273 small cell lung, with LXFL 529 NSCLC and in the experiment with SNB-78 CNS was more than 100 µM in each case. The TGI with DMS 273 small cell lung, with LXFL 529 NSCLC and in the experiment on SNB-78 CNS was more than 100 µM in each case.
On to `O=C1C(Cl)=C(N2CCN(C3=C(Cl)C(=O)c4ccccc4C3=O)CC2)C(=O)c2ccccc21`, for which the TGI turned out to be 5.44 µM in the experiment on DMS 273 small cell lung, 0.793 µM in the experiment with LXFL 529 NSCLC, 3.46 µM in the experiment on RXF-631 renal and 1.56 µM in the experiment with SNB-78 CNS.
Turning to `c1ccc(C2C3=C(Nc4ncnn42)c2ccccc2C3)cc1` (stereo unspecified), the TGI in the experiment on DMS 273 small cell lung, in the experiment with HOP-18 NSCLC, in the experiment with RXF-631 renal and in the experiment on SNB-78 CNS was more than 100 µM throughout.
For `COC(=O)C(CCC#N)(CCC#N)C(=O)OC`, the TGI in the experiment on DMS 273 small cell lung and with LXFL 529 NSCLC was more than 100 µM throughout.
`COC(=O)CC(C(C(=O)OC)C(=O)OC)N1C(=O)OCC1c1ccccc1` (stereo unspecified): the TGI in the experiment with DMS 273 small cell lung, in the experiment on LXFL 529 NSCLC and in the experiment with RXF-631 renal was more than 100 µM each time.
Take `CC1=C(O)C(=O)[C@@H]2O[C@@H]2C1=O`: the TGI is 62.3 µM in the experiment with DMS 273 small cell lung; 30.6 µM with HOP-18 NSCLC; 4.99 µM in the experiment with P388 leukemia; 32.9 µM in the experiment with P388/ADR leukemia; 32.3 µM in the experiment with SN12K1 renal; 40.9 µM in the experiment with SNB-78 CNS.
Consider `O=c1[nH]n2c(=O)cc[nH]c2c1-c1nnns1`, for which the TGI in the experiment with DMS 273 small cell lung, in the experiment with LXFL 529 NSCLC and in the experiment on SNB-78 CNS was more than 100 µM each time.
Consider `NC(N)=NS(=O)(=O)c1ccc(NCc2c3ccccc3[n+]([O-])c3ccccc23)cc1`, for which the TGI with DMS 273 small cell lung is more than 100 µM; in the experiment with HOP-18 NSCLC, 52.3 µM; with LXFL 529 NSCLC it was 80.5 µM; in the experiment on SNB-78 CNS, more than 100 µM.
As to `COc1ccc(C(C#N)NNC(=O)c2ccccc2O)cc1OC` (stereo unspecified), the TGI is 47.2 µM with DMS 273 small cell lung, more than 100 µM in the experiment on HOP-18 NSCLC, more than 100 µM in the experiment on LXFL 529 NSCLC and more than 100 µM with SNB-78 CNS.
